In one test the target is T1, HDAC1 (Homo sapiens, UniProt Q13547).
T1 construct: purchased Enzolifesciences BML-AK511
As to the kind of experiment: HDAC enzyme activity inhibition (in vitro), HDAC1 Fluorimetric Drug Discovery Assay Kit. Format: biochemical. Conditions: samples at 100, 1000 and 10000 nM; 37° C. 60 minutes; fluorescence Ex 390, Em 460; read-out: HDAC1 IC50. In a few lines: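 HDAC1 was tested at 100, 1000 and 10000 nM and recombinant human HDAC6 at 0.1, 1, 10, 100 and 1000 nM. Enzyme reactions ran 60 min at 37° C, then developer was added for 30 min at 37° C, and fluorescence (Ex 390, Em 460) was read.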

The next test deals with T2, HDAC6 human recombinant (Homo sapiens, UniProt Q9UBN7).
T2 construct: purchased Calbiochem 382180
T2 sequence (Q9UBN7 1-1215): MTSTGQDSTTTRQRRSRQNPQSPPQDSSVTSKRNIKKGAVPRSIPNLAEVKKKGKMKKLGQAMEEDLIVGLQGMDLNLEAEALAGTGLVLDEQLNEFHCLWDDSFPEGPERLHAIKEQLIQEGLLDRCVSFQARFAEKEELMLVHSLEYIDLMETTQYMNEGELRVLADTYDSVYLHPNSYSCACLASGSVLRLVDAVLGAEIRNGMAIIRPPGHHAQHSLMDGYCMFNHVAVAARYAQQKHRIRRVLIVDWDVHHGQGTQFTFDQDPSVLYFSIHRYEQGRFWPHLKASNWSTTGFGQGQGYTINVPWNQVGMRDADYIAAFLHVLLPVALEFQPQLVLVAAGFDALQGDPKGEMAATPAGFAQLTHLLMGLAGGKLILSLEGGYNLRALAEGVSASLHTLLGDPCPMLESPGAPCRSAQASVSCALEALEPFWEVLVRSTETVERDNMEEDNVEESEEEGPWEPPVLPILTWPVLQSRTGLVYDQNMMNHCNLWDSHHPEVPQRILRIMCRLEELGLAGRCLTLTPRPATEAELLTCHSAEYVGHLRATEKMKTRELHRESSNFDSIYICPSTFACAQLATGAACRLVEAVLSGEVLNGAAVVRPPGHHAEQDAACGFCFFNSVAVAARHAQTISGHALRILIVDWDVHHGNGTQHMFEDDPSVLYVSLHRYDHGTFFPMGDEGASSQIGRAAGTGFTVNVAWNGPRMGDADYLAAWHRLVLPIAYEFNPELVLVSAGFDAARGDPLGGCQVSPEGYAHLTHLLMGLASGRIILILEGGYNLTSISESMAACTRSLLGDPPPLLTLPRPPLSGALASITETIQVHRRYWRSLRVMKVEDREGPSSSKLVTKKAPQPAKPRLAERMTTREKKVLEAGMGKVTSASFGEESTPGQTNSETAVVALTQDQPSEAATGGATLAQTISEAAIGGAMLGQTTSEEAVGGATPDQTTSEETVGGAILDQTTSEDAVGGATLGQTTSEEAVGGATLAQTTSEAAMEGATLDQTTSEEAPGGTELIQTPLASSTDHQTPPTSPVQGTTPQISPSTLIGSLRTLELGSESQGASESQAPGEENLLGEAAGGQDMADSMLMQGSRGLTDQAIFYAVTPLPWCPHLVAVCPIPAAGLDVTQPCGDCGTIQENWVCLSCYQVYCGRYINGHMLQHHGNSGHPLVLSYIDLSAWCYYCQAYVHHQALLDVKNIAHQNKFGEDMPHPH
As to the kind of experiment: HDAC enzyme activity inhibition (in vitro), HDAC6 assay. The format is biochemical. The following applies: samples at 0.1, 1, 10, 100 and 1000 nM; 37° C. 60 minutes; fluorescence Ex 390, Em 460; read-out: HDAC6 IC50. In a few lines: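 HDAC6 human recombinant enzyme with fluorimetric substrate; […]. Reaction 60 min at 37° C, then developer 30 min at 37° C; fluorescence read at Ex 390/Em 460.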

Where only a bound is given, the exact number is not on record here.

T1 sequence (Q13547 whole entry): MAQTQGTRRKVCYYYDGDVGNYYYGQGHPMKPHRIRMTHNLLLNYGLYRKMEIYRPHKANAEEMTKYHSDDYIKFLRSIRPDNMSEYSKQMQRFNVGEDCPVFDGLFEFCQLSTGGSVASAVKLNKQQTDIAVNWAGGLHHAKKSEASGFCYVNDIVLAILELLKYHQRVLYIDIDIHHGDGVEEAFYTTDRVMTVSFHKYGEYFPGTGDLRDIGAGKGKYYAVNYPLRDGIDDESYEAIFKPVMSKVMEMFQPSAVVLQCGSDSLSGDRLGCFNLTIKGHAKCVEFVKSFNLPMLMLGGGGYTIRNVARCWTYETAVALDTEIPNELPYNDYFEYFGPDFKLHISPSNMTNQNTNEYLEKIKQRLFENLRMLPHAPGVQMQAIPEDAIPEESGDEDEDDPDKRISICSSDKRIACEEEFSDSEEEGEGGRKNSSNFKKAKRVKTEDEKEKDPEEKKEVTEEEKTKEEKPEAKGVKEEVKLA

For the molecule `CCN1CCC(n2c(=O)n(Cc3ccc(-c4nnc(C(F)F)o4)cn3)c3ccc(-c4cccnc4)cc32)CC1` [Compound 281, 1-((5-(5-(difluoromethyl)-1,3,4-oxadiazole-2-yl)pyridine-2-yl)methyl)-3-(1-ethylpiperidine-4-yl)-5-(pyridine-3-yl)-1,3-dihydro-2H-benzo[d]imidazole-2-one], the 50% inhibitory concentration (IC50) (usually the concentration needed to halve the response being measured) at HDAC1 was over 10000 nM; at HDAC6 human recombinant, 18 nM.

Take `O=c1n(Cc2ccc(-c3nnc(C(F)F)o3)cn2)c2ccc(-c3ccncc3)cc2n1C1CCN(C2COC2)CC1` [Compound 282, 1-((5-(5-(difluoromethyl)-1,3,4-oxadiazole-2-yl)pyridine-2-yl)methyl)-3-(1-(oxetan-3-yl)piperidine-4-yl)-5-(pyridine-4-yl)-1,3-dihydro-2H-benzo[d]imidazole-2-one]: the IC50 was over 10000 nM on HDAC1 and 16 nM at HDAC6 human recombinant.

As to `CCN1CCC(n2c(=O)n(Cc3ccc(-c4nnc(C(F)F)o4)cn3)c3ccc(-c4ccncc4)cc32)CC1` [Compound 283, 1-((5-(5-(difluoromethyl)-1,3,4-oxadiazole-2-yl)pyridine-2-yl)methyl)-3-(1-ethylpiperidine-4-yl)-5-(pyridine-4-yl)-1,3-dihydro-2H-benzo[d]imidazole-2-one], the IC50 on HDAC1 is over 10000 nM; on HDAC6 human recombinant, 23 nM.

On to `Cn1c(=O)n(Cc2ccc(-c3nnc(C(F)F)o3)cn2)c2cc(F)c(N3CCN(Cc4cccc5[nH]ccc45)CC3)cc21` [Compound 284, 5-(4-((1H-indole-4-yl)methyl)piperazine-1-yl)-1-((5-(5-(difluoromethyl)-1,3,4-oxadiazole-2-yl)pyridine-2-yl)methyl)-6-fluoro-3-methyl-1,3-dihydro-2H-benzo[d]imidazole-2-one], for which the IC50 on HDAC1 is over 10000 nM; on HDAC6 human recombinant it was 59 nM.

Consider `Cn1c(=O)n(Cc2ccc(-c3nnc(C(F)F)o3)cn2)c2cc(F)c(N3CCN(Cc4cn[nH]c4)CC3)cc21` [Compound 285, 5-(4-((1H-pyrazole-4-yl)methyl)piperazine-1-yl)-1-((5-(5-(difluoromethyl)-1,3,4-oxadiazole-2-yl)pyridine-2-yl)methyl)-6-fluoro-3-methyl-1,3-dihydro-2H-benzo[d]imidazole-2-one], for which the IC50 is over 10000 nM at HDAC1 and 33 nM at HDAC6 human recombinant.

For the molecule `O=c1n(Cc2ccc(-c3nnc(C(F)F)o3)cn2)c2cc(F)c(-c3cccnc3)cc2n1[C@@H]1CCN(C2COC2)C1` [Compound 286, (R)-1-((5-(5-(difluoromethyl)-1,3,4-oxadiazole-2-yl)pyridine-2-yl)methyl)-6-fluoro-3-(1-(oxetan-3-yl)pyrrolidine-3-yl)-5-(pyridine-3-yl)-1,3-dihydro-2H-benzo[d]imidazole-2-one], the results for the IC50 at HDAC1 and on HDAC6 human recombinant were over 10000 nM and 9 nM, respectively.

As for `O=c1n(Cc2ccc(-c3nnc(C(F)F)o3)cn2)c2cc(F)c(-c3ccncc3)cc2n1[C@@H]1CCN(C2COC2)C1` [Compound 287, (R)-1-((5-(5-(difluoromethyl)-1,3,4-oxadiazole-2-yl)pyridine-2-yl)methyl)-6-fluoro-3-(1-(oxetan-3-yl)pyrrolidine-3-yl)-5-(pyridine-4-yl)-1,3-dihydro-2H-benzo[d]imidazole-2-one], the IC50 on HDAC1 is over 10000 nM; on HDAC6 human recombinant, 14 nM.

With `O=c1n(Cc2ccc(-c3nnc(C(F)F)o3)cn2)c2cc(F)c(-c3cccc4[nH]ccc34)cc2n1[C@@H]1CCN(C2COC2)C1` [Compound 288, (R)-1-((5-(5-(difluoromethyl)-1,3,4-oxadiazole-2-yl)pyridine-2-yl)methyl)-6-fluoro-5-(1H-indole-4-yl)-3-(1-(oxetan-3-yl)pyrrolidine-3-yl)-1,3-dihydro-2H-benzo[d]imidazole-2-one], the IC50 was over 10000 nM on HDAC1 and 10 nM at HDAC6 human recombinant.

Regarding `O=c1n(Cc2ccc(-c3nnc(C(F)F)o3)cn2)c2cc(F)c(-c3cccc4[nH]ccc34)cc2n1CC1CCN(C2COC2)CC1` [Compound 289, 1-((5-(5-(difluoromethyl)-1,3,4-oxadiazole-2-yl)pyridine-2-yl)methyl)-6-fluoro-5-(1H-indole-4-yl)-3-((1-(oxetan-3-yl)piperidine-4-yl)methyl)-1,3-dihydro-2H-benzo[d]imidazole-2-one], the results for the half-inhibitory concentration (IC50) on HDAC1 and on HDAC6 human recombinant were over 10000 nM and 4 nM, respectively.

Regarding `O=c1n(Cc2ccc(-c3nnc(C(F)F)o3)cn2)c2cc(F)c(-c3cccnc3)cc2n1CC1CCN(C2COC2)CC1` [Compound 290, 1-((5-(5-(difluoromethyl)-1,3,4-oxadiazole-2-yl)pyridine-2-yl)methyl)-6-fluoro-3-((1-(oxetan-3-yl)piperidine-4-yl)methyl)-5-(pyridine-3-yl)-1,3-dihydro-2H-benzo[d]imidazole-2-one], the IC50 is over 10000 nM on HDAC1 and 7 nM at HDAC6 human recombinant.

In the case of `O=c1n(Cc2ccc(-c3nnc(C(F)F)o3)cn2)c2cc(F)c(-c3ccncc3)cc2n1CC1CCN(C2COC2)CC1` [Compound 291, 1-((5-(5-(difluoromethyl)-1,3,4-oxadiazole-2-yl)pyridine-2-yl)methyl)-6-fluoro-3-((1-(oxetan-3-yl)piperidine-4-yl)methyl)-5-(pyridine-4-yl)-1,3-dihydro-2H-benzo[d]imidazole-2-one], the IC50 was over 10000 nM at HDAC1 and 9 nM on HDAC6 human recombinant.

As for `O=c1n(Cc2ccc(-c3nnc(C(F)F)o3)cn2)c2cc(F)c(-c3cn[nH]c3)cc2n1CC1CCN(C2COC2)CC1` [Compound 292, 1-((5-(5-(difluoromethyl)-1,3,4-oxadiazole-2-yl)pyridine-2-yl)methyl)-6-fluoro-3-((1-(oxetan-3-yl)piperidine-4-yl)methyl)-5-(1H-pyrazole-4-yl)-1,3-dihydro-2H-benzo[d]imidazole-2-one], the IC50 at HDAC1 was over 10000 nM; on HDAC6 human recombinant, 3 nM.

Regarding `O=c1n(Cc2ccc(-c3nnc(C(F)F)o3)cn2)c2cc(F)c(-c3cccnc3)cc2n1[C@@H]1CCCN(C2COC2)C1` [Compound 293, (R)-1-((5-(5-(difluoromethyl)-1,3,4-oxadiazole-2-yl)pyridine-2-yl)methyl)-6-fluoro-3-(1-(oxetan-3-yl)piperidine-3-yl)-5-(pyridine-3-yl)-1,3-dihydro-2H-benzo[d]imidazole-2-one], the IC50 at HDAC1 is over 10000 nM; at HDAC6 human recombinant, 8 nM.

For the molecule `O=c1n(Cc2ccc(-c3nnc(C(F)F)o3)cn2)c2cc(F)c(-c3ccncc3)cc2n1[C@@H]1CCCN(C2COC2)C1` [Compound 294, (R)-1-((5-(5-(difluoromethyl)-1,3,4-oxadiazole-2-yl)pyridine-2-yl)methyl)-6-fluoro-3-(1-(oxetan-3-yl)piperidine-3-yl)-5-(pyridine-4-yl)-1,3-dihydro-2H-benzo[d]imidazole-2-one], the IC50 at HDAC1 was over 10000 nM; at HDAC6 human recombinant it was 11 nM.

For `O=c1n(Cc2ccc(-c3nnc(C(F)F)o3)cn2)c2cc(F)c(-c3cccc4[nH]ccc34)cc2n1[C@@H]1CCCN(C2COC2)C1` [Compound 295, (R)-1-((5-(5-(difluoromethyl)-1,3,4-oxadiazole-2-yl)pyridine-2-yl)methyl)-6-fluoro-5-(1H-indole-4-yl)-3-(1-(oxetan-3-yl)piperidine-3-yl)-1,3-dihydro-2H-benzo[d]imidazole-2-one], the IC50 was over 10000 nM at HDAC1 and 10 nM on HDAC6 human recombinant.

As to `O=c1n(Cc2ccc(-c3nnc(C(F)F)o3)cn2)c2cc(F)c(-c3cn[nH]c3)cc2n1[C@@H]1CCCN(C2COC2)C1` [Compound 296, (R)-1-((5-(5-(difluoromethyl)-1,3,4-oxadiazole-2-yl)pyridine-2-yl)methyl)-6-fluoro-3-(1-(oxetan-3-yl)piperidine-3-yl)-5-(1H-pyrazole-4-yl)-1,3-dihydro-2H-benzo[d]imidazole-2-one], the figures for the IC50 on HDAC1 and on HDAC6 human recombinant were over 10000 nM and 5 nM, respectively.

(Values after US20230092890A1, “1, 3, 4-Oxadiazole derivative compounds as histone deacetylase 6 inhibitor, and the pharmaceutical composition comprising the same” (Chong Kun Dang Pharmaceutical Corp., priority 2019, published 2023).)
